From US20260000678A1, “PHARMACEUTICAL COMPOSITION FOR PREVENTING, SUPPRESSING, OR TREATING SYMPTOM ASSOCIATED WITH PSEUDO-ALLERGIC REACTION” (Takasaki University of Health and Welfare, priority 2022, published 2026)
Entries after “also recorded” stand apart in the source; their conditions may differ. Values belong to the compound of their own block, whether it stands above or below them.

How the values were obtained:
[1] = tested on: PMCs derived from P2X4 receptor-deficient mice; experiment: Degranulation of PMCs derived from P2X4 receptor-deficient mice; assay type: cell-based, mouse; settings: DNP-HSA or C48/80 stimulation with 100 uM ATP
Description: The abdominal cavity of wild-type C57BL/6 mice (7- to 8-week-old, male; n=4) or P2X4 receptor-deficient mice (7- to 8-week-old, male; n=4) was washed with 4 mL of RPMI1640 medium to prepare peritoneal cells. The cells were cultured in RPMI1640 medium containing 10% FBS, penicillin (100 unit/ml), streptomycin (100 μg/ml), recombinant mouse IL-3 (10 ng/ml, manufactured by PeproTech, Inc.), and 10 ng/mL of SCF (manufactured by PeproTech, Inc.) for 14 days to be used for the experiment. 95% or more of the prepared PMCs were double positive for c-KIT and FcεRI (FACSCant II, manufactured by BD Biosciences).
Anti-DNP-IgE antibody (clone: SPE-7, manufactured by Sigma-Aldrich, Inc.) was added to a culture solution containing PMCs derived from wild-type C57BL/6 mice or P2X4 receptor-deficient mice so that the concentration reached 50 ng/ml, and the PMCs were sensitized overnight. The PMCs were washed with PBS(−) and suspended in Krebs Ringer-HEPES Buffer containing 0.1% BSA (NaCl 130 mM, KCl 4.7 mM, NaHCO3 4.0 mM, KH2P4 1.2 mM, Glucose 11.5 mM, HEPES 10 mM, and CaCl2—H2O 1.8 mM) so that the concentration reached 1×10^6 cell/mL. […] 50 mM carbonate buffer (pH 10.0, 100 uL) was added to stop the enzyme reaction of β-hexosaminidase, and absorbance was measured at 405/655 nm using an absorbance microplate reader Sunrise (manufactured by Tecan Trading AG). […]

[2] = tested on: PMCs; experiment: Degranulation of PMCs (β-hexosaminidase release rate); assay type: cell-based, mouse; settings: for Degranulation of PMCs by the stimulant alone: 37° C. 10 minutes, DNP-HSA on IgE-sensitized PMCs, BzATP 10 uM; for Effect on IgE receptor stimulation or degranulation by C48/80: α,β-methyl mATP 10 uM, ADP 100 uM, UDP-Glucose 100 uM
[3] = tested on: wild-type C57BL/6 mice; experiment: Passive systemic anaphylaxis caused by C48/80 (rectal temperature); assay type: in vivo, mouse; settings: 10 mg/kg intraperitoneally 15 minutes before C48/80 (50 μg i.v.); vs vehicle; listed as Compound B
Description: Wild-type C57BL/6 mice (9-week-old, male; n=8) and P2X4 receptor-deficient mice (10-week-old, male; n=7) were intravenously administered with 100 μL of physiological saline containing 50 μg of C48/80 (manufactured by Sigma-Aldrich, Inc.). Thereafter, the rectal temperatures of the mice were measured with a digital thermometer (manufactured by Physitemp Instruments, LLC.) every 5 minutes for a period of 60 minutes.
Compound B, a P2X4 receptor antagonist, was used after being dissolved in physiological saline at a concentration of 10 mg/ml. In a passive systemic anaphylaxis test using the wild-type C57BL/6 mice of Example 1-1), 10 mg/kg of Compound B or a solvent thereof (vehicle) was intraperitoneally administered 15 minutes before administration of C48/80. […] From this, it was considered that the symptom of the pseudo-allergy can be reduced by the P2X4 receptor antagonist.

[4] = dose dependency, DNP-HSA 0, 1, 5, or 10 μg/mL
[5] = wild-type PMCs, C48/80 10 uM, Substance P 100 uM, PAMP-12 10 uM, vancomycin 1 mM

Effect of promoting degranulation of ATP in P2X4 receptor-deficient PMCs [1]: not observed
Effect of ATP on degranulation of PMCs by MrgprB2 stimulation with C48/80 ([2]; 100 uM ATP, C48/80 10 uM, wild-type PMCs): significantly promoted
Effect of ATP on degranulation of PMCs by Substance P, PAMP-12 and vancomycin ([2]; Substance P 100 uM, PAMP-12 10 uM, vancomycin 1 mM): promoted; also recorded: enhanced
Effect of ATP on degranulation by IgE receptor stimulation, DNP-HSA at a high concentration [2, 4]: not observed
Effect of ATP on degranulation by IgE receptor stimulation, DNP-HSA at a low concentration [2, 4]: promoted degranulation
Compound: Nc1ncnc2c1ncn2[C@@H]1O[C@H](COP(=O)(O)OP(=O)(O)OP(=O)(O)O)[C@@H](O)[C@H]1O [ATP]
Effect of ATP on degranulation of PMCs by IgE receptor stimulation (DNP-HSA) ([2]; 100 uM ATP, IgE (SPE-7)-sensitized wild-type PMCs): significantly promoted
Effect of ATP on dose dependency of degranulation by MrgprB2 stimulation with C48/80 ([2]; C48/80 0, 1, 10, or 100 uM): enhanced the maximum response; also recorded: significantly increased the degree of degranulation

Compound: CN[C@H](CC(C)C)C(=O)N[C@H]1C(=O)N[C@@H](CC(N)=O)C(=O)N[C@H]2C(=O)N[C@H]3C(=O)N[C@H](C(=O)N[C@H](C(=O)O)c4cc(O)cc(O)c4-c4cc3ccc4O)[C@H](O)c3ccc(c(Cl)c3)Oc3cc2cc(c3O[C@@H]2O[C@H](CO)[C@@H](O)[C@H](O)[C@H]2O[C@H]2C[C@](C)(N)[C@H](O)[C@H](C)O2)Oc2ccc(cc2Cl)[C@H]1O [vancomycin]
Degranulation of PMCs by the stimulant alone [2, 5]: induced

Effect on IgE receptor stimulation or degranulation by C48/80 [2]: did not affect
Compound: Nc1ncnc2c1ncn2[C@@H]1O[C@H](COP(=O)(O)CP(=O)(O)OP(=O)(O)O)[C@@H](O)[C@H]1O [α,β-methyl mATP]

Compound: BzATP
Degranulation of PMCs by the stimulant alone [2, 5]: induced degranulation

Effect on IgE receptor stimulation or degranulation by C48/80 [2]: did not affect
Compound: Nc1ncnc2c1ncn2[C@@H]1O[C@H](COP(=O)(O)OP(=O)(O)O)[C@@H](O)[C@H]1O [ADP]

Compound: Substance P
Degranulation of PMCs by the stimulant alone [2, 5]: induced

Compound: O=C1CC(=O)N(c2ccc(NC(=O)c3ccccc3I)cc2)c2ccc3ccccc3c2N1 [Compound B48, 5-[4-(2-iodobenzoylamino)phenyl]-1H-naphtho[1,2-b][1,4]diazepine-2,4(3H,5H)-dione]
Suppression of the decrease in rectal temperature by C48/80 [3]: significantly suppressed
Suppression of the promotion of degranulation of PMCs by ATP ([2]; Compound at 10 uM before the degranulation reaction, C48/80 10 uM with or without 100 uM ATP, vs vehicle, listed as Compound B): significantly suppressed

Compound: Proadrenomedullin N-terminal 20 peptide [PAMP-12]
Degranulation of PMCs by the stimulant alone [2, 5]: induced
